A short description of data set [1]: Oral bioavailability in dog. The data set is classed as ADME, organism-based, Canis lupus familiaris. Particulars: in vivo.
Data set [2] is described as follows: Oral bioavailability in rat. In kind it is ADME, organism-based. Particulars: in vivo.

The record followed here is ChEMBL document CHEMBL1156072, “Twenty-six years of anti-HIV drug discovery: where do we stand and where do we go?” (J Med Chem, 2010).

As for `COc1cc2c(cc1Cc1cccc(Cl)c1F)c(=O)c(C(=O)O)cn2[C@H](CO)C(C)C` [ELVITEGRAVIR], the results for the bioavailability in data set [1] and in data set [2] were 30% and 34%, respectively.
